Patent publication US11214803B2, “Modulators of YAP1 expression” (Ionis Pharmaceuticals, Inc., priority 2019, dated 2022)
Strand notation (5' to 3'): a small letter for the sugar, then the base; units joined by * are phosphorothioate-linked, units joined directly phosphodiester-linked; [ ] holds rarer units or linkages, { } end groups; capitals alone tell only the bases. k = constrained ethyl (cEt); [5mC] = 5-methylcytosine; d = 2'-deoxy (DNA)

System: Yap1 mRNA
Assay: Antisense inhibition of human Yap1 in A-431 cells by cEt gapmers, single dose (Example 4, RTS4814)
Format: cell-based
Procedure: Modified oligonucleotides were designed to target a Yap1 nucleic acid and were tested for their effect on Yap1 mRNA level in vitro. The modified oligonucleotides were tested in a series of experiments that had similar culture conditions. Cultured A-431 cells at a density of 5,000 cells per well were treated using free uptake with 2,000 nM of modified oligonucleotide. After a treatment period of approximately 48 hours, RNA was isolated from the cells and Yap1 mRNA levels were measured by quantitative real-time RTPCR. Human primer probe set RTS4814 was used to measure mRNA levels. Yap1 mRNA levels were normalized to total RNA content, as measured by RIBOGREEN®. Results are presented in the tables below as percent control of the amount of Yap1 mRNA relative to untreated control cells (% UTC). The modified oligonucleotides with percent control values marked with an asterisk (*) target the amplicon region of the primer probe set. Additional assays may be used to measure the potency and efficacy of the modified oligonucleotides targeting the amplicon region.
The newly designed modified oligonucleotides in the Tables below were designed as 3-10-3 cEt gapmers. The gapmers are 16 nucleosides in length, wherein the central gap segment comprises of ten 2′-deoxynucleosides and is flanked by wing segments on the 5′ direction and the 3′ direction comprising three nucleosides each. Each nucleoside in the 5′ wing segment and each nucleoside in the 3′ wing segment has a cEt sugar modification. The internucleoside linkages throughout each gapmer are phosphorothioate (P═S) linkages. All cytosine residues throughout each gapmer are 5-methylcytosines.
“Start site” indicates the 5′-most nucleoside to which the gapmer is targeted in the human gene sequence. “Stop site” indicates the 3′-most nucleoside to which the gapmer is targeted human gene sequence. […] Activity of the modified oligonucleotide may be defined in a different experiment.

[1] = Table 15, A-431 cells, 5,000 cells per well, free uptake, 2,000 nM, approximately 48 hours, RTS4814, normalized to RIBOGREEN, Yap1 mRNA relative to untreated control, * = targets amplicon region of primer probe set
[2] = Table 14, A-431 cells, 5,000 cells per well, free uptake, 2,000 nM, approximately 48 hours, RTS4814, normalized to RIBOGREEN, Yap1 mRNA relative to untreated control, * = targets amplicon region of primer probe set
[3] = Yap1 mRNA remaining as percent of untreated control, 3-10-3 cEt gapmers, A-431 cells, Table 37
[4] = Yap1 mRNA remaining as percent of untreated control, 3-10-3 cEt gapmers, A-431 cells, Table 36
[5] = Table 16, A-431 cells, 5,000 cells per well, free uptake, 2,000 nM, approximately 48 hours, RTS4814, normalized to RIBOGREEN, Yap1 mRNA relative to untreated control cells
[6] = Table 17, A-431 cells, 5,000 cells per well, free uptake, 2,000 nM, approximately 48 hours, RTS4814, normalized to RIBOGREEN, Yap1 mRNA relative to untreated control cells

Substance: 1074113 (k[5mC]*kT*k[5mC]*d[5mC]*dA*dA*d[5mC]*dT*d[5mC]*d[5mC]*d[5mC]*dT*dT*kG*kA*k[5mC]; antisense) [Compound 1074113]
- YAP1 (% UTC) [1]: 61 % UTC

Substance: 1075616 (kG*kT*kA*dA*dA*dA*d[5mC]*d[5mC]*dG*dA*dT*dT*dT*kT*kT*k[5mC]; antisense) [Compound 1075616]
- YAP1 (% UTC) [2]: 46 % UTC

Substance: 1074519 (kA*k[5mC]*kT*dA*d[5mC]*dT*dA*dG*dT*d[5mC]*dA*dT*dG*kT*kA*kT; antisense) [compound 1074519]
- YAP1 (% UTC) [3]: 45 % UTC

Substance: 1074241 (antisense kG*kA*kT*dG*dT*d[5mC]*dT*dT*dT*dG*d[5mC]*d[5mC]*dA*kT*k[5mC]*kT) [Compound 1074241]
- YAP1 (% UTC) [1]: 72 % UTC

Substance: 1075095 (k[5mC]*kT*kT*dG*dA*dA*dA*dA*d[5mC]*dA*dA*dG*d[5mC]*k[5mC]*kA*k[5mC]; antisense) [compound 1075095]
- YAP1 (% UTC) [3]: 63 % UTC

Substance: 1074518 (kA*kA*kA*dT*dG*d[5mC]*dA*dT*dA*d[5mC]*dA*dA*dA*kG*k[5mC]*kG; antisense) [compound 1074518]
- YAP1 (% UTC) [4]: 13 % UTC

Substance: 1075682 (kG*kA*kT*dA*dA*dT*dT*dA*dT*dT*dA*d[5mC]*d[5mC]*k[5mC]*k[5mC]*kT; antisense) [Compound 1075682]
- YAP1 (% UTC) [5]: 35 % UTC

Substance: 1075286 (antisense kA*kT*kT*dA*d[5mC]*dG*dG*dA*d[5mC]*dA*dG*dA*dA*kG*kT*kG) [compound 1075286]
- YAP1 (% UTC) [4]: 48 % UTC

Substance: 1076503 (kA*kA*kT*dT*dA*d[5mC]*d[5mC]*d[5mC]*d[5mC]*dT*dG*dT*dG*kA*kG*kG; antisense) [compound 1076503]
- YAP1 (% UTC) [3]: 77 % UTC

Substance: 1076087 (k[5mC]*kA*kA*dA*d[5mC]*dT*dA*dA*dT*dA*dG*dG*d[5mC]*k[5mC]*kA*kT; antisense) [compound 1076087]
- YAP1 (% UTC) [3]: 10 % UTC

Substance: 1074178 (antisense kG*k[5mC]*k[5mC]*dT*d[5mC]*d[5mC]*d[5mC]*d[5mC]*d[5mC]*dG*dA*d[5mC]*dG*k[5mC]*kG*k[5mC]) [Compound 1074178]
- YAP1 (% UTC) [5]: 95 % UTC

Substance: 1075446 (antisense k[5mC]*kT*kA*dT*dA*dA*dA*dT*d[5mC]*d[5mC]*dT*d[5mC]*dA*kT*kG*kT) [compound 1075446]
- YAP1 (% UTC) [4]: 87 % UTC

Substance: 1076151 (kT*kA*kT*dT*dT*dA*dT*dT*dA*dA*d[5mC]*dT*d[5mC]*kA*k[5mC]*kG; antisense) [compound 1076151]
- YAP1 (% UTC) [3]: 14 % UTC

Substance: 1074167 (antisense k[5mC]*kG*k[5mC]*dA*d[5mC]*d[5mC]*d[5mC]*d[5mC]*d[5mC]*dT*dG*dA*d[5mC]*k[5mC]*k[5mC]*kA) [compound 1074167]
- YAP1 (% UTC) [3]: 58 % UTC

Substance: 1076407 (antisense kG*kT*kA*dT*dT*dA*dT*dT*dT*dA*dA*dG*dA*k[5mC]*k[5mC]*kT) [compound 1076407]
- YAP1 (% UTC) [3]: 22 % UTC

Substance: 1074176 (antisense k[5mC]*kT*k[5mC]*d[5mC]*d[5mC]*d[5mC]*d[5mC]*dG*dA*d[5mC]*dG*d[5mC]*dG*k[5mC]*kA*k[5mC]) [Compound 1074176]
- YAP1 (% UTC) [2]: 84 % UTC

Substance: 1074242 (antisense kA*kG*kA*dA*dG*dA*dT*dG*dT*d[5mC]*dT*dT*dT*kG*k[5mC]*k[5mC]) [Compound 1074242]
- YAP1 (% UTC) [5]: 56 % UTC

Substance: 1076448 (k[5mC]*kT*kT*dA*dT*dA*dA*dT*dG*d[5mC]*dA*dA*dT*k[5mC]*k[5mC]*kT; antisense) [Compound 1076448]
- YAP1 (% UTC) [2]: 2 % UTC

Substance: 1075904 (kG*kT*kA*dT*dA*dG*dG*dA*dT*d[5mC]*dT*dA*d[5mC]*kT*kA*kA; antisense) [Compound 1075904]
- YAP1 (% UTC) [2]: 51 % UTC

Substance: 1074723 (antisense kG*kG*kT*dA*dA*dA*dG*dG*dA*dA*dG*dA*dT*k[5mC]*kT*k[5mC]) [Compound 1074723]
- YAP1 (% UTC) [6]: 6 % UTC

Substance: 1074647 (antisense k[5mC]*kA*kA*dA*dT*dT*dG*dA*dA*dG*dG*dG*d[5mC]*k[5mC]*kA*kA) [compound 1074647]
- YAP1 (% UTC) [3]: 27 % UTC

Substance: 1074592 (antisense kG*kG*kA*dG*d[5mC]*dA*dA*dG*dT*d[5mC]*dT*dT*dG*kT*kA*kA) [Compound 1074592]
- YAP1 (% UTC) [2]: 23 % UTC

Substance: 1075969 (kG*kT*kA*dT*dT*dT*dA*dA*dG*d[5mC]*d[5mC]*dA*dA*kA*k[5mC]*k[5mC]; antisense) [Compound 1075969]
- YAP1 (% UTC) [1]: 11 % UTC

Substance: 1076289 (kA*kA*k[5mC]*dG*dG*dA*d[5mC]*dA*dA*d[5mC]*dT*dT*dA*kA*k[5mC]*kA; antisense) [Compound 1076289]
- YAP1 (% UTC) [1]: 21 % UTC

Substance: 1075638 (antisense kA*kT*kT*dA*dA*d[5mC]*d[5mC]*dA*dG*dA*dA*dG*d[5mC]*k[5mC]*kT*kG) [compound 1075638]
- YAP1 (% UTC) [4]: 79 % UTC

Substance: 1076544 (antisense kG*kA*k[5mC]*d[5mC]*dA*dA*d[5mC]*d[5mC]*dT*d[5mC]*d[5mC]*d[5mC]*d[5mC]*kT*kT*kG) [Compound 1076544]
- YAP1 (% UTC) [2]: 89 % UTC

Substance: 1074243 (antisense kT*k[5mC]*kT*dG*dA*d[5mC]*d[5mC]*dA*dG*dA*dA*dG*dA*kT*kG*kT) [Compound 1074243]
- YAP1 (% UTC) [6]: 60 % UTC

Substance: 1074560 (antisense k[5mC]*k[5mC]*kA*dA*dT*d[5mC]*dG*dA*dG*dA*d[5mC]*dT*dT*kA*kA*kA) [Compound 1074560]
- YAP1 (% UTC) [2]: 3 % UTC

Substance: 1075939 (k[5mC]*kT*kT*dG*dA*dA*dT*dA*dT*dA*dT*dG*dG*kG*kT*kT; antisense) [Compound 1075939]
- YAP1 (% UTC) [6]: 6 % UTC

Substance: 1076224 (kT*kA*kT*dA*dA*dA*d[5mC]*d[5mC]*dT*dT*dG*d[5mC]*dT*kA*k[5mC]*kA; antisense) [Compound 1076224]
- YAP1 (% UTC) [2]: 67 % UTC

Substance: 1075799 (k[5mC]*k[5mC]*kT*d[5mC]*dA*dA*d[5mC]*dA*d[5mC]*dA*dT*dT*dT*kG*kA*kG; antisense) [compound 1075799]
- YAP1 (% UTC) [3]: 85 % UTC

Substance: 1076566 (kA*kA*kT*dT*dA*d[5mC]*dA*dG*dT*dG*dT*d[5mC]*dT*k[5mC]*kA*k[5mC]; antisense) [compound 1076566]
- YAP1 (% UTC) [4]: 63 % UTC

Substance: 1076323 (k[5mC]*kA*kA*dT*dT*dT*dA*d[5mC]*dA*dA*dG*dT*dG*kA*kG*k[5mC]; antisense) [Compound 1076323]
- YAP1 (% UTC) [6]: 5 % UTC

Substance: 1075170 (antisense kA*k[5mC]*kT*dA*dA*dA*dA*dT*d[5mC]*d[5mC]*d[5mC]*d[5mC]*dA*kA*kG*kG) [Compound 1075170]
- YAP1 (% UTC) [5]: 94 % UTC

Substance: 1075744 (kT*kT*k[5mC]*dG*dG*dG*dT*dT*dA*dG*d[5mC]*dA*dG*kA*k[5mC]*kT; antisense) [Compound 1075744]
- YAP1 (% UTC) [2]: 6 % UTC

Substance: 1075735 (kG*kA*kA*dT*d[5mC]*dG*dA*dT*dG*dT*dG*dT*dT*kG*k[5mC]*kG; antisense) [compound 1075735]
- YAP1 (% UTC) [3]: 17 % UTC

Substance: 1076001 (kA*k[5mC]*kT*d[5mC]*dA*dA*dG*dG*dA*dA*d[5mC]*d[5mC]*dA*kT*kT*kT; antisense) [Compound 1076001]
- YAP1 (% UTC) [1]: 24 % UTC

Substance: 1074945 (antisense k[5mC]*kA*kA*dA*dA*d[5mC]*d[5mC]*d[5mC]*dT*dT*dT*dG*dG*kT*k[5mC]*kT) [Compound 1074945]
- YAP1 (% UTC) [1]: 74 % UTC

Substance: 1076257 (k[5mC]*kT*kA*dA*dG*dA*dA*dA*d[5mC]*dT*d[5mC]*dA*dT*kA*kG*kT; antisense) [Compound 1076257]
- YAP1 (% UTC) [1]: 54 % UTC

Substance: 1075201 (antisense k[5mC]*kT*kT*dT*dA*dA*dA*dG*d[5mC]*d[5mC]*d[5mC]*dT*dA*kA*kT*kT) [Compound 1075201]
- YAP1 (% UTC) [1]: 114 % UTC

Substance: 1075265 (antisense kT*k[5mC]*kT*dG*dA*dA*dT*dA*dA*dT*dA*dT*dG*k[5mC]*kA*kG) [Compound 1075265]
- YAP1 (% UTC) [1]: 44 % UTC
